Measurements from PubChem BioAssay AID449762 (Southern Research Specialized Biocontainment Screening …, 2010).
Results filed as inconclusive are left out.

Tested on: M. tuberculosis H37Rv growth inhibition, 7H9 media
Assay: M. tuberculosis growth inhibition, HTS (AID 449762);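 note: bacterial growth assessed after seven days of incubation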
Details: for IC90: measured here: IC90 growth inhibition

Structure (SMILES): CCOC(=O)CSc1ncc(OC)c(Sc2ccc(OC)cc2)n1
- IC50: 7.53 µM
- IC90: 73.4 µM

Structure (SMILES): COc1ccc(C(=O)OCCNC(=O)c2c(Cl)nc3ccccn23)cc1
- IC50: 10 µM
- IC90: 16.1 µM

Structure (SMILES): Fc1cccc(CCN2CCNC[C@H]2Cc2cccc3ccccc23)c1
- IC50: 36.6 µM
- IC90: 43.2 µM

Structure (SMILES): N#Cc1ccc(OCC(O)CN2CCN(c3ncc(C(F)(F)F)cc3Cl)CC2)cc1 (centres undefined)
- IC50: 15.2 µM
- IC90: 24 µM

Structure (SMILES): Cc1cccc(N2CCN(CC(=O)Nc3nccs3)CC2)c1C
- IC50: 16 µM
- IC90: 58.5 µM

Structure (SMILES): CCc1cc2c(=O)c(-c3cnn(-c4ccccc4)c3)c(C)oc2c(CN2CCCCC2)c1O
- IC50: 2.58 µM
- IC90: 21.7 µM

Structure (SMILES): COc1ccc(-n2nc3c(c2NC(=O)CCl)CSC3)cc1
- IC50: 4.85 µM
- IC90: 9.39 µM

Structure (SMILES): CC(C)OC(=O)CCCCCN1C(=O)CSC1=S
- IC50: 3.5 µM
- IC90: 8.17 µM

Structure (SMILES): Cc1ncc(C23CC4CC(CC(C4)C2)C3)[nH]1
- IC50: 49.9 µM
- IC90: 51.5 µM

Structure (SMILES): C[C@@H]1CN([C@H](C)CO)C(=O)c2cc(NC(=O)Nc3ccc(C(F)(F)F)cc3)ccc2O[C@H]1CN(C)S(=O)(=O)c1cccs1
- IC50: 22.6 µM
- IC90: 25.9 µM

Structure (SMILES): Cc1ccc(/C=C/S(=O)(=O)NCC(=O)OCC(=O)Nc2c(F)cccc2F)cc1
- IC50: 5.26 µM
- IC90: 13.2 µM

Structure (SMILES): COc1ccc(C)c2sc(N(CCN(C)C)C(=O)/C=C/c3cccs3)nc12
- IC50: 25.2 µM
- IC90: 35.9 µM

Structure (SMILES): O=C(CN1CCN(c2ccccc2O)CC1)Nc1ccccc1C(=O)NCCc1ccccc1
- IC50: 44.3 µM
- IC90: 57.9 µM

Structure (SMILES): CCCn1c(CC)nc([N+](=O)[O-])c1S(=O)(=O)c1ccccc1
- IC50: 7.8 µM
- IC90: 22.6 µM

Structure (SMILES): Cn1cnc([N+](=O)[O-])c1Sc1ccc(Br)cc1
- IC50: 8.81 µM
- IC90: 16.9 µM

Structure (SMILES): COc1ccc(-c2ccc(-c3noc(C(C)C)n3)c(OC)n2)cc1
- IC50: 10.7 µM
- IC90: 26.7 µM

Structure (SMILES): OC(COC(c1ccc(Cl)cc1)c1ccc(Cl)cc1)CN1CCc2ccccc2C1 (centres undefined)
- IC50: 18.8 µM
- IC90: 24.7 µM

Structure (SMILES): Cc1ccc(N(CCC#N)C(=O)CCl)cc1C
- IC50: 0.98 µM
- IC90: 4.41 µM

Structure (SMILES): O=C(NCC1CC1)c1cc([N+](=O)[O-])cc([N+](=O)[O-])c1
- IC50: 5.75 µM
- IC90: 6.43 µM

Structure (SMILES): CN(C)CCCN(C(=O)c1cc(-c2cccs2)nc2ccccc12)c1nc2ccc(F)cc2s1
- IC50: 41 µM
- IC90: 55.5 µM

Structure (SMILES): Nc1nnnn1/N=C/C(Br)=C/c1ccccc1
- IC50: 1.08 µM
- IC90: 8.66 µM

Structure (SMILES): C=C(C)C1CC=C(CN2CCN(Cc3ccccc3)CC2)CC1 (centres undefined)
- IC50: 15.7 µM
- IC90: 25.9 µM

Structure (SMILES): CNC(CC(C)C)C(=O)NC1C(=O)NC(CC(N)=O)C(=O)NC2C(=O)NC3C(=O)NC(C(=O)NC(C(=O)O)c4cc(O)cc(O)c4-c4cc3ccc4O)C(O)c3ccc(c(Cl)c3)Oc3cc2cc(c3OC2OC(CO)C(O)C(O)C2OC2C[C@](C)(N)C(O)C(C)O2)Oc2ccc(cc2Cl)C1O (some centres undefined)
- IC50: 1.01 µM
- IC90: 4.42 µM

Structure (SMILES): C=C[C@]1(C)C[C@@H](OC(=O)CSCCN(CC)CC)[C@]2(C)C(C)CC[C@]3(CCC(=O)[C@H]32)[C@@H](C)[C@@H]1O (some centres undefined)
- IC50: 4.03 µM
- IC90: 7.7 µM

Structure (SMILES): N#C/C=C\Oc1ccc(Cl)cc1N
- IC50: 14 µM
- IC90: 23.3 µM

Structure (SMILES): CC(C)C[C@H]1C(=O)N2CCC[C@H]2[C@]2(O)O[C@](NC(=O)C3C=C4c5cccc6[nH]c(Br)c(c56)C[C@H]4N(C)C3)(C(C)C)C(=O)N12 (some centres undefined)
- IC90: > 100 µM

Structure (SMILES): O=C(Nc1nc2ccc(SC(F)F)cc2s1)c1ccc(NS(=O)(=O)c2ccc(F)c(F)c2)cc1
- IC50: 16.5 µM
- IC90: 24.7 µM

Structure (SMILES): Cn1/c(=N/NC(=O)c2cccc(OC(F)F)c2)sc2ccccc21
- IC50: 2 µM
- IC90: 22.7 µM

Structure (SMILES): O=C(c1cc([N+](=O)[O-])cc([N+](=O)[O-])c1)N(Cc1nnc(-c2ccccc2Cl)o1)C1CC1
- IC50: 2.59 µM
- IC90: 8.42 µM

Structure (SMILES): CCOc1cc(NC(=O)CCl)c(OCC)cc1NC(C)=O
- IC50: < 0.2 µM
- IC90: 5.99 µM

Structure (SMILES): Clc1ccc(Nc2ccc(-n3ccnc3)nn2)cc1Cl
- IC50: 18.9 µM
- IC90: 25.3 µM

Structure (SMILES): O=C(NCCC1=CCCCC1)c1c(O)nc2sccn2c1=O
- IC50: 72.8 µM
- IC90: > 100 µM

Structure (SMILES): CN(/N=C/c1cc(Br)cc(Br)c1O)c1cccc(C(F)(F)F)n1
- IC50: 3.93 µM
- IC90: 7.43 µM

Structure (SMILES): O=C(c1cc(COc2ccc(F)cc2F)on1)N1CCCC(c2ccccc2)C1 (centres undefined)
- IC50: 17.6 µM
- IC90: 39.8 µM

Structure (SMILES): CCOc1ccc(N(C(=O)/C=C/C(=O)Nc2cc(C)on2)C(C(=O)NC2CCCC2)c2ccccc2C)cc1 (centres undefined)
- IC50: 65.9 µM
- IC90: > 100 µM

Structure (SMILES): CCOc1ccc(-c2cc(CCCC(=O)NCCC(C)C)no2)cc1
- IC50: 6.53 µM
- IC90: 14.3 µM

Structure (SMILES): C1=C(c2c[nH]c3ccccc23)CCNC1
- IC50: 32.4 µM
- IC90: 39.8 µM

Structure (SMILES): COC(=O)c1cccc(C#CC(NP(=O)(c2ccccc2)c2ccccc2)c2ccccc2)c1 (centres undefined)
- IC90: > 100 µM

Structure (SMILES): Cc1cc(C)n2[nH]c(=O)c(N=Nc3cccc(C(F)(F)F)c3)c2n1
- IC50: 86.5 µM
- IC90: > 100 µM

Structure (SMILES): N#C/C(N=Nc1ccccc1O)=N\Nc1ccccc1O
- IC50: < 0.2 µM
- IC90: 1.65 µM

Structure (SMILES): Nc1ccccc1C#CC(=O)c1ccccc1
- IC50: 1.11 µM
- IC90: 43.1 µM

Structure (SMILES): COc1cc(/C=C/c2cc[n+](C)cc2)ccc1OCC(=O)Nc1ccc(Cl)c(Cl)c1
- IC50: 21.7 µM
- IC90: 23.5 µM

Structure (SMILES): CCN(CC)c1ccc2c(Cl)c(Br)c(=O)oc2c1
- IC50: 13.7 µM
- IC90: 43.4 µM
